Results: patent publication US10420781B2, “Thyroid hormone receptor agonist and use thereof” (Metabasis Therapeutics, Inc., priority 2016, dated 2019)
Entries after “also recorded” stand apart in the source; their conditions may differ.

What was measured:
[1] = tested on: cholesterol-fed Sprague Dawley rat; experiment: Single oral dose, plasma cholesterol lowering in cholesterol-fed rat; format: in vivo; settings: 24 hours
Procedure: Compound I was tested to determine the cholesterol lowering efficacy and potency of Compound I following oral administration of single dose to a standard rodent model of hypercholesterolemia, the cholesterol-fed Sprague Dawley rat.
Male Sprague Dawley rats were obtained from Harlan (Livermore, Calif.) at a body weight of 250 g, caged 3 rats/cage, and housed under a 12 h:12 h, light:dark cycle (lights on at 7 AM). Pelleted 5001 chow containing 1.5% cholesterol and 0.5% cholic acid (Harlan Teklad, Indianapolis, Ind.) was provided for 2 weeks prior to the initiation of treatment. Food and water were provided ad libitum.
Compound I was dissolved in 100% PEG-400. […]
Male Sprague Dawley rats (˜250 g) were fed a diet containing 1.5% cholesterol and 0.5% cholic acid for 2 weeks prior to the initiation of treatment. Compound I was administered as an oral solution in PEG-400 and phosphate buffered saline, respectively, at doses ranging from 0.3 to 100 mg/kg Compound I. Thyroid hormone T3 (0.1 mg/kg) was evaluated as a positive control. […]
Plasma was prepared from the blood samples by centrifugation in an Eppendorf Microfuge (14,000 rpm, 2 min, room temperature). Total plasma cholesterol was measured using the Infinity cholesterol reagent (Thermo Electron Corporation, Waltham, Mass.) and a standard curve prepared with a 300 mg/dL cholesterol standard. […]

beagle dogs [2] = experiment: Once-daily oral administration for 14 days, total plasma cholesterol in beagle dogs; format: in vivo, dog; settings: 14 days once-daily oral, 0.1-10 mg/kg/day
Procedure: (§1) The effects of once-daily oral administration of Compound I on plasma cholesterol levels and thyroid function indicators in beagle dogs were evaluated for 14 days.
(§2) Male and female beagle dogs were purchased from Marshall Farms (North Rose, N.Y.) at approximately 9-15 kg in body weight. Animals were housed individually under a 12 hour lighting cycle (7 am-7 pm light) and controlled temperature (˜22° C.). The dogs were fed twice-daily with Teklad 8563 chow (Harlan Teklad, Madison, Wis.) and allowed water ad libitum.
Compound I was dissolved in 100% PEG-400. The formulation was prepared just prior to initiation of treatment and stored at 4° C. […]
Twelve beagle dogs (9-15 kg) were randomized into 6 dosing groups (1 male and 1 female/group) and gavaged once-daily with a PEG-400 solution of Compound I at doses of 0.1, 0.3, 1, 3, or 10 mg/kg or with vehicle for 14 days. […] Blood samples were collected at baseline and appropriate time intervals thereafter and analyzed for total plasma cholesterol levels, serum levels of total T4 (tT4), free T4 (fT4), total T3 (tT3), free T3 (fT3), thyroid stimulating hormone (TSH), and plasma drug levels.
Total plasma cholesterol was measured using an Infinity cholesterol reagent (Thermo Electron Corporation, Waltham, Mass.) and with use of a standard curve prepared from a 300 mg/dL cholesterol standard. […]

beagle dogs [3] = experiment: Once-daily oral administration for 14 days, thyroid function tests (tT4, fT4, tT3, fT3, TSH) in beagle dogs; format: in vivo, dog
Procedure: as §1, §2
Compound I was dissolved in 100% PEG-400. The formulation was prepared just prior to initiation of treatment and stored at 4° C. A fresh formulation was prepared for each 7 day treatment period.
Twelve beagle dogs (9-15 kg) were randomized into 6 dosing groups (1 male and 1 female/group) and gavaged once-daily with a PEG-400 solution of Compound I at doses of 0.1, 0.3, 1, 3, or 10 mg/kg or with vehicle for 14 days. At the end of the treatment cycle (Cycle 1), the dogs were washed out for 6 weeks and then entered into a second 14-day treatment cycle. Cycle 2 employed the same dosing paradigm as Cycle 1, but animals were randomized to Cycle 2 in such a way that the combined dosing groups from the two cycles each consisted of 4 different animals (2 males, 2 females). Blood samples were collected at baseline and appropriate time intervals thereafter and analyzed for total plasma cholesterol levels, serum levels of total T4 (tT4), free T4 (fT4), total T3 (tT3), free T3 (fT3), thyroid stimulating hormone (TSH), and plasma drug levels.
Serum samples were shipped on dry ice to the Diagnostic Center for Population and Animal Health (Lansing, Mich.) and assayed for total T4 (tT4), free T4 (fT4), total T3 (tT3), free T3 (fT3), and thyroid stimulating hormone (TSH). Average values±the standard error of the mean (SEM) were calculated for all treatment groups.

[4] = tested on: fT3 and fT4 levels in human serum; experiment: Ex vivo effect on fT3 and fT4 levels in human serum (RIA)
Procedure: (§3) Compound I was tested to measure its ex vivo effects at concentrations ranging from 0 to 100 μM on the free 3,5,3′-triiodothyronine (fT3) and the free 3,5,3′,5′ tetraiodothyronine (fT4) levels in human, monkey, dog, and rat sera.
(§4) Stock solution of Compound I was prepared in 100% DMSO. The test articles were combined with either human, monkey, dog or rat serum in a microcentrifuge tube at concentrations of 1, 3, 10, 30, and 100 μM, and incubated at 37° C. with agitation (800 rpm) using a Thermomixer R (Eppendorf, Inc.; Westbury, N.Y.) for 1 h. The DMSO concentration in the serum incubations was kept constant at 1%. Following the serum incubations, fT3 and T4 quantification was accomplished using the GammaCoat™ FT3 and the GammaCoat™ FT4 RIA kits, respectively. The kits were used according to the manufacturer's recommendations. The T3 assay specifications indicate 0.2% cross-reactivity with T4, while the T4 assay specifications indicate 0.5% cross-reactivity with T3. In these […] assays, a shaking water bath and a Wallac Wizard 1470 automatic gamma counter (Perkin Elmer, Inc.; Waltham, Mass.) were used. At each concentration tested, a background signal was subtracted from the data. This background signal was determined in samples of the test articles in PBS in the absence of serum. All assays were performed in duplicate.

[5] = tested on: fT3 and fT4 levels in monkey serum; experiment: Ex vivo effect on fT3 and fT4 levels in monkey serum (RIA); settings: 1 h at 37° C., 1-100 μM tested
Procedure: as §3, §4

[6] = tested on: fT3 and fT4 levels in dog serum; experiment: Ex vivo effect on fT3 and fT4 levels in dog serum (RIA); settings: 1 h at 37° C., 1-100 μM tested
Procedure: as §3, §4

[7] = tested on: fT3 and fT4 levels in rat serum; experiment: Ex vivo effect on fT3 and fT4 levels in rat serum (RIA); settings: 1 h at 37° C., 1-100 μM tested
Procedure: as §3, §4

beagle dogs [8] = experiment: Comparison of Compound I and MB07811: cholesterol, tT4 and TSH in beagle dogs; format: in vivo, dog
Procedure: Compound I was compared with Compound MB07811 with respect to their efficacy in lowering cholesterol and their effects on the total T4 (tT4) and thyroid stimulating hormone (TSH).
Compound I and Compound MB07811 were tested to determine the effects of oral administration of each compound once-daily for 14 days followed by alternate day dosing for 14 days on plasma cholesterol levels and indicators of thyroid function in beagle dogs.
Male and female Beagle dogs were purchased from Marshall Farms (North Rose, N.Y.) at approximately 9-15 kg. Animals were housed individually under a 12-hour lighting cycle (7 am-7 pm light) and controlled temperature (˜22° C.). The dogs were fed twice daily with Teklad 8563 chow (Harlan Teklad, Madison, Wis.) and allowed water ad libitum.
MB07811 was administered as a suspension in 0.5% CMC/1% Lutrol in deionized water. To prepare the vehicle, the required amount of CMC was weighed and dissolved in deionized water using a Waring blender. The required amount of Lutrol F68 was weighed and slowly added to the Waring blender while mixing. […]
Twelve beagle dogs (9-15 kg) were randomized into 6 dosing groups (1 male and 1 female/group) and gavaged once-daily with a 0.5% CMC/1% Lutrol F68 suspension of MB07811 at doses of […] or with vehicle for 14 days. […] Blood samples were collected at baseline and appropriate time intervals thereafter and analyzed for total plasma cholesterol levels, serum levels of total T4 (tT4), free T4 (fT4), total T3 (tT3), free T3 (fT3), and thyroid stimulating hormone (TSH). […]
Twelve beagle dogs (9-15 kg) were randomized into 6 dosing groups (1 male and 1 female/group) and gavaged once-daily with a PEG-400 solution of Compound I at doses of 0.1, 0.3, 1, 3, or 10 mg/kg or with vehicle for 14 days. […] Blood samples were collected at baseline and appropriate time intervals thereafter and analyzed for total plasma cholesterol levels, serum levels of total T4 (tT4), free T4 (fT4), total T3 (tT3), free T3 (fT3), and thyroid stimulating hormone (TSH), and for plasma drug levels

rat = experiment: Pilot rat 28-day safety study; settings: 28 days; 1 and 5 mg/kg per day
Procedure: Two doses were tested, 1 mg/kg per day and 5 mg/kg per day. […] The mice were sacrificed on day 29 and then analyzed for clinical signs, BW, FC Clinical pathology (including TSH, T3, T4), gross pathology, organ weights, histopathology, toxicokinetics.

[9] = all five doses 0.1, 0.3, 1, 3, 10 mg/kg, baseline, 8-day, 15-day

Cc1cc(OCP(=O)(OCOC(=O)C(C)(C)C)OCOC(=O)C(C)(C)C)cc(C)c1Cc1ccc(O)c(Cc2ccccc2)c1 [Compound I]
ED50 ([1]; Rattus norvegicus, single oral dose, read-out: ED50 (dose that elicits a half-maximal reduction in total plasma cholesterol levels from baseline)): ~2 mg/kg
reduction of total plasma cholesterol levels, dose dependent (beagle dogs [2]): 15-38%
reduction of serum fT3 (beagle dogs [3]; 14 days, highest dose group 10 mg/kg/day): about 45%
reduction of serum tT4 from baseline (beagle dogs [3]; Day 15, 1 mg/kg/day): about 29%
tT4 levels reduced relative to baseline (in the fT3 paragraph, FIG. 9) (beagle dogs [3]; Day 15, 10 mg/kg/day): ~45%
reduction of serum tT4 from baseline (beagle dogs [3]; Day 15, 0.1, 0.3 and 3 mg/kg/day): 6.7-9.5%
change of serum TSH levels from baseline (beagle dogs [3]; Day 15, 0.1 to 10 mg/kg/day): no meaningful changes; also recorded: did not show any effect; also recorded: essentially unaffected
reduction of serum fT4 from baseline (beagle dogs [3]; Day 15, all Compound I treated groups, not dose dependent, vehicle about 19%): 13-32%
reduction of serum fT3 from baseline (beagle dogs [3]; Day 15, doses up to and including 3 mg/kg/day): 8-20%
reduction of serum tT3 from baseline (beagle dogs [3]; Day 15, treatment groups, not dose dependent, vehicle about 13%): 8-15%
concentration at which no effect on fT3 was shown [4]: less than 30
concentration at which no effect on fT4 was shown [4]: less than 100 μM
highest concentration at which no increase in fT3 level was observed ([4]; 1 h at 37° C., 1-100 μM tested): 30 µM
highest concentration at which no increase in fT4 level was observed ([4]; 1 h at 37° C., 1-100 μM tested): 100 µM
highest concentration at which no increase in fT3 level was observed [5]: 30 µM
highest concentration at which no increase in fT4 level was observed [5]: 100 µM
highest concentration at which no increase in fT3 level was observed [6]: 100 µM
highest concentration at which no increase in fT4 level was observed [6]: 100 µM
highest concentration at which no increase in fT3 level was observed [7]: 100 µM
highest concentration at which no increase in fT4 level was observed [7]: 100 µM
effect on T4 (tT4) levels in comparison (beagle dogs [8]; [9]): reduced effect
effect on serum TSH level in comparison with MB07811 (beagle dogs [8]; [9]): no effect
effect on the thyroid hormone axis (T4 and TSH) versus MB07811 (beagle dogs [8]; dog, in vivo): much reduced effect
TFT effects greater than Compound MB07811 (rat): no evidence
cardiac or liver necrosis (rat): no evidence
deaths or adverse effects on body weight, food consumption, hematology, serum chemistry or urinalysis, or macroscopic or microscopic pathology (rat): no deaths or adverse effects

N[C@@H](Cc1cc(I)c(Oc2ccc(O)c(I)c2)c(I)c1)C(=O)O [Compound T3, 3,5,3′-triiodo-L-thyronine, reference compound]
magnitude of cholesterol lowering versus Compound I at its two highest doses ([1]; T3 0.1 mg/kg, Compound I 30 and 100 mg/kg): comparable
